Measured values as given in ChEMBL document CHEMBL1201862, “PubChem BioAssay data set” (2004).
“And” between values parts separate entries of the source, which are not always exact repeats. Equal entries are not always repeated.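 Cultured in 96-well plates, cells were exposed to test compound for 48 hours across five concentrations. Here, GI50 denotes the concentration required for 50% inhibition of growth.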 The source made the active and inactive calls. Cut-off read from the data, not from the text of the source: active = GI50 up to about 1.1 µM and inactive = higher.

Assays:
Experiment in all cases: DTP human tumour cell line panel, 48 h
EKVX = system: EKVX
HCC 2998 = system: HCC 2998
HL-60 = system: HL-60
HOP-92 = system: HOP-92
M14 = system: M14
MCF7 = system: MCF7
MDA-MB-231 = system: MDA-MB-231
MDA-N = system: MDA-N
Malme-3M = system: Malme-3M
NCI-H226 = system: NCI-H226
NCI-H460 = system: NCI-H460
NCI-H522 = system: NCI-H522
OVCAR-5 = system: OVCAR-5
SF-539 = system: SF-539
SNB-19 = system: SNB-19
SR = system: SR
SW-620 = system: SW-620
TK-10 = system: TK-10
RPMI-8226 = system: RPMI-8226
RXF 393 = system: RXF 393

Row | SMILES | GI50 (EKVX) | GI50 (HCC 2998) | GI50 (HL-60) | GI50 (HOP-92) | GI50 (M14) | GI50 (MCF7) | GI50 (MDA-MB-231) | GI50 (MDA-N) | GI50 (Malme-3M) | GI50 (NCI-H226) | GI50 (NCI-H460) | GI50 (NCI-H522) | GI50 (OVCAR-5) | GI50 (SF-539) | GI50 (SNB-19) | GI50 (SR) | GI50 (SW-620) | GI50 (TK-10) | GI50 (RPMI-8226) | GI50 (RXF 393)
1 | O=c1ccn(C2OC(CO)C(O)C2[Se]c2ccccc2)c(=O)[nH]1 (stereo unspecified) | > 100 µM (inactive) | 92.3 µM (inactive) | > 100 µM (inactive) | > 100 µM (inactive) | > 100 µM (inactive) | > 100 µM (inactive) | > 100 µM (inactive) | > 100 µM (inactive) | > 100 µM (inactive) | > 100 µM (inactive) | > 100 µM (inactive) | 99.1 µM (inactive) | > 100 µM (inactive) | > 100 µM (inactive) | > 100 µM (inactive) | > 100 µM (inactive) | > 100 µM (inactive) | 0.24 µM (active) |  | 
2 | COc1ccc(-c2coc3c4c(ccc3c2=O)OCO4)cc1OC | 38.5 µM (inactive) | > 100 µM (inactive) | 14.3 µM (inactive) | 36.3 µM (inactive) | > 100 µM (inactive) | 91 µM (inactive) | 45.4 µM (inactive) | 5.79 µM (inactive) |  | 76.7 µM (inactive) | 57.8 µM (inactive) | 56.9 µM (inactive) | > 100 µM (inactive) | 40.6 µM (inactive) | 29 µM (inactive) | 8.87 µM (inactive) | > 100 µM (inactive) | 63 µM (inactive) | > 100 µM (inactive) | 
3 | CC(C)=CC(=O)C[C@H]1C(=O)O[C@@H]2C[C@H]3C(C)=CC(=O)[C@@H](O)[C@]3(C)[C@H]3[C@@]4(O)OC[C@]32[C@@H]1[C@@H](C)[C@H]4O | 0.175 µM (active) | 0.0313 µM (active) | < 0.01 µM (active) | 0.0216 µM (active) | 0.0196 µM (active) | < 0.01 µM (active) | 0.0454 µM (active) | < 0.0189 µM (active) | < 0.01 µM (active) | < 0.01 µM (active) | < 0.01 µM (active) |  | 0.0711 µM (active) | < 0.01 µM (active) | < 0.0127 µM (active) | < 0.01 µM (active) | 0.0281 µM (active) | 0.019 µM (active) | < 0.01 µM (active) | 
4 | COC(=O)c1c(C(=O)OC)c2c3ccccc3n(C)c2c2c1c1ccccc1n2C | 47.1 µM (inactive) | > 100 µM (inactive) |  | > 100 µM (inactive) | > 100 µM (inactive) | > 100 µM (inactive) | 17.1 µM (inactive) | > 100 µM (inactive) | 89.9 µM (inactive) | > 100 µM (inactive) | > 100 µM (inactive) | 58.1 µM (inactive) | 61.1 µM (inactive) | 45.9 µM (inactive) | 27.6 µM (inactive) | > 100 µM (inactive) | > 100 µM (inactive) | > 100 µM (inactive) | > 100 µM (inactive) | 
5 | CCC(C)C1=C(O)[N+]2([O-])Oc3ccc(-c4c(O)c(O)c(-c5ccc(OC(C)=O)cc5)c(OC(C)=O)c4OC(C)=O)cc3OC2(C(C)CC)C(=O)N1O (stereo unspecified) | > 50 µM (inactive) | 11.9 µM (inactive) | 24 µM (inactive) and 27.4 µM (inactive) | 8.17 µM (inactive) and 10 µM (inactive) | > 50 µM (inactive) | > 50 µM (inactive) | > 50 µM (inactive) | 36.3 µM (inactive) and 24.3 µM (inactive) | 34.6 µM (inactive) and 45.2 µM (inactive) |  | > 50 µM (inactive) | 14.4 µM (inactive) and 16.1 µM (inactive) | > 50 µM (inactive) | > 50 µM (inactive) | > 50 µM (inactive) | 22.3 µM (inactive) and 13.9 µM (inactive) | 24.2 µM (inactive) | > 50 µM (inactive) | > 50 µM (inactive) and 33.8 µM (inactive) | > 50 µM (inactive)
